Test results from publication PMC6168434 (European journal of medicinal chemistry, 2018).

What was measured:
MCF7 = conditions: MCF7, relative to CysB; cited from earlier work
cancer cells = experiment: Western blot and flow cytometry analysis of treated cancer cells; format: cell-based; conditions: Figure S4
[1] = biological target: human immunoproteasome hiβ5 (Homo sapiens, UniProt P20618+P28062); experiment: Purified human immunoproteasome β5; format: biochemical; conditions: purified human immunoproteasomes 8 μg/mL, Suc-LLVY-AMC
hcCP β5 in MCF7 cells = experiment: Cellular infiltration: β5 inhibition in intact versus lysed MCF7 cells; format: cell-based, human; conditions: one hour treatment, relative to 1
[2] = biological target: yeast 20S proteasome (yCP) yβ5 (Saccharomyces cerevisiae, UniProt P23724+P30656); experiment: Purified yeast proteasome inhibition, yβ5; format: biochemical

Row | Compound | times more cytotoxic than CysB (MCF7) | apoptosis (flow cytometry) (cancer cells) | cell cycle (flow cytometry) (cancer cells) | ubiquitinated proteins (Western blot) (cancer cells) | isoform preference hiβ5 versus yβ5 [1] | times more capable of crossing the cell membrane than 1 (hcCP β5 in MCF7 cells) | fold decreased IC50 for yβ5 versus yβ1 [2] [fold]
1 | CC(C)[C@H](NC(=O)[C@@H]1OC(=O)[C@H]1C(C)C)C(=O)N[C@H](C(=O)OCc1ccccc1)C(C)C [Compound 1] | over 10 times | induced apoptosis | arrested cells in the G2/M phase | accumulation of ubiquitinated proteins | – | – | –
2 | CC[C@H](C)[C@@H]1C(=O)O[C@H]1C(=O)N[C@H](C(=O)N[C@H](C(=O)OCc1ccccc1)C(C)C)C(C)C [Compound 2, benzyl((2R,3S)-3-((S)-sec-butyl)-4-oxooxetane-2-carbonyl)-L-valyl-L-valinate] | – | induced apoptosis | arrested cells in the G2/M phase | accumulation of ubiquitinated proteins | slight preference for hiβ5 | approximately 10 times | –
3 | CC[C@H](C)[C@@H]1C(=O)O[C@H]1C(=O)N[C@H](C(=O)N[C@@H](COCc1ccccc1)C(=O)OCc1ccccc1)C(C)C [Compound 5k, benzylO-benzyl-N-(((2R,3S)-3-((S)-sec-butyl)-4-oxooxetane-2-carbonyl)-L-valyl)-L-serinate] | – | – | – | – | slight preference for hiβ5 | – | –
4 | CC(C)[C@H](NC(=O)[C@@H](NC(=O)[C@@H]1OC(=O)[C@H]1C(C)C)C(C)C)C(=O)O [Cystargolide B, reference compound] | – | – | – | – | – | – | 50
